Publication PMC6061857 (2018)

Tests used:
[1] = system: 38-GT (DNA, aptamer) GGGAGACAAGGAAAATCCTTCAATGAAGTGGGTCTCCC; assay: ITC; settings: 10 mM Tris, pH 7.4, 23 °C
[2] = system: 35-GT (DNA, aptamer) GGGAGACAAGGAAAATCCTTCAATGAAGTGGGTCT; assay: ITC; settings: 10 mM Tris, pH 7.4, 23 °C
[3] = system: ATP-30 (DNA, aptamer) CGCACCTGGGGGAGTATTGCGGAGGAAGGT; assay: ITC, two-site sequential binding; settings: 10 mM Mg2+; 10 mM Tris, pH 7.4, 23 °C; site 1 of 2 (KD2 10.1 ± 0.3 μM)
[4] = system: ATP-33 (DNA, aptamer) CGCACCTGGGGGAGTATTGCGGAGGAAGGTGCG; assay: ITC, two-site sequential binding; settings: 10 mM Mg2+; 10 mM Tris, pH 7.4, 23 °C; site 1 of 2 (KD2 12.3 ± 0.6 μM)

Row | SMILES | KD [1] | KD [2] | KD1 [3] | KD1 [4]
1 | COC(=O)[C@H]1[C@@H](OC(=O)c2ccccc2)C[C@@H]2CC[C@H]1N2C | 1.6 ± 0.2 µM | 12 ± 1.0 µM |  | 
2 | Nc1ncnc2c1ncn2[C@@H]1O[C@H](COP(=O)(O)OP(=O)(O)OP(=O)(O)O)[C@@H](O)[C@H]1O |  |  | 0.8 ± 0.1 µM | 0.6 ± 0.1 µM
